Assay results published in patent EP0264138B1, “Novel compound DC-102 and process for production thereof” (KYOWA HAKKO KOGYO CO., LTD., priority 1986, dated 1988).

System: lymphocytic leukemia P388
Test: Therapeutical effect against lymphocytic leukemia P388
Type: in vivo, male CDF₁ mice
Details: dose 6 mg/kg intraperitoneally
Method: Five male CDF₁ mice each having a weight of about 22 g were used for each group as test animals, and 1 x 10⁶ cells of lymphocytic leukemia P388 were implanted intraperitoneally in the test animals. 24 hours after implantation, 0.2 mℓ of a phosphate buffer saline (hereinafter referred to as PBS) containing DC-102 was intraperitoneally administered. For comparison, 0.2 mℓ of PBS solution containing mitomycin C was intraperitoneally administered 24 hours after implantation of the tumor cells. The mean survival time (MST) after implantation and increased life span (ILS) represented by T/C (T: MST for test groups; C: MST for control group) are shown in Table 3.

CO[C@@]12[C@H](COC(N)=O)C3=C(C(=O)C(C)=C(N)C3=O)N1C[C@@H]1N[C@@H]12 [Mitomycin C, mitomycin C]
MST (24 hours after implantation of 1 x 10⁶ P388 cells): 17.2 days | ILS (T/C) (T: MST for test groups, C: MST for control group): 166
